Assay results taken from the supplement of paper PMC6315032.

Experiments:
Experiment in all cases: apparent dissociation constant (pKDapp, Kinobeads competition, Cheng-Prusoff corrected) (-log10 M); higher = tighter binding
ABL2 = ABL2 (UniProt P42684); conditions: affinity matrix / lysate: Kinobeads, mixed HEK293/K-562/placenta lysate
BMPR1A = BMPR1A (UniProt P36894); conditions: affinity matrix / lysate: Kinobeads, mixed HEK293/K-562/placenta lysate
BRSK2 = BRSK2 (UniProt Q8IWQ3); conditions: affinity matrix / lysate: Kinobeads, mixed HEK293/K-562/placenta lysate
CAMK2B = CAMK2B (UniProt Q13554); conditions: affinity matrix / lysate: Kinobeads, mixed HEK293/K-562/placenta lysate
CAMK2D = CAMK2D (UniProt Q13557); conditions: affinity matrix / lysate: Kinobeads, mixed HEK293/K-562/placenta lysate
CDK10 = CDK10 (UniProt Q15131); conditions: affinity matrix / lysate: Kinobeads, mixed HEK293/K-562/placenta lysate
Chain of CDK10 (Q15131 whole entry): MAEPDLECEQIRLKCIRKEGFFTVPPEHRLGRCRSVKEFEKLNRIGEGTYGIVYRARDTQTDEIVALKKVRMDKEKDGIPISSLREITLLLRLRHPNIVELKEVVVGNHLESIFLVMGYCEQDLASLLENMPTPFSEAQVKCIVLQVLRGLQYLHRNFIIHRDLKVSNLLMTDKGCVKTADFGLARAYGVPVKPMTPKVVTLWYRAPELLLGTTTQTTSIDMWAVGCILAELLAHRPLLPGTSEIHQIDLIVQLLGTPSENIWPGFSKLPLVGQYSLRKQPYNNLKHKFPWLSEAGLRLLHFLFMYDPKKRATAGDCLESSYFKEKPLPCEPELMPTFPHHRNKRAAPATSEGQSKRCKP

CSNK2A1 = CSNK2A1 (UniProt P68400)
Chain of CSNK2A1 (P68400 whole entry, looked up): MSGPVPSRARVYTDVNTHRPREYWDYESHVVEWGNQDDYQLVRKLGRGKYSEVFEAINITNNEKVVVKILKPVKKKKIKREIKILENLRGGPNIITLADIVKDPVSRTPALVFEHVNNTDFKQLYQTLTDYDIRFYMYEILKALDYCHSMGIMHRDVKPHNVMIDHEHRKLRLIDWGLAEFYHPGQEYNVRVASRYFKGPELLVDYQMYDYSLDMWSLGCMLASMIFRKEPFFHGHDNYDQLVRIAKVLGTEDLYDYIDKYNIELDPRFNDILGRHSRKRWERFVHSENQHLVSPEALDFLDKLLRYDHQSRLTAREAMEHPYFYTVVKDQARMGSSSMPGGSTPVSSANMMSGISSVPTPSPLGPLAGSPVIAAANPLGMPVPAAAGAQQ

EPHB2 = EPHB2 (UniProt P29323); conditions: affinity matrix / lysate: Kinobeads, mixed HEK293/K-562/placenta lysate
ERN1 = ERN1 (UniProt O75460); conditions: affinity matrix / lysate: Kinobeads, mixed HEK293/K-562/placenta lysate
HIPK2 = HIPK2 (UniProt Q9H2X6); conditions: affinity matrix / lysate: Kinobeads, mixed HEK293/K-562/placenta lysate
HIPK3 = HIPK3 (UniProt Q9H422); conditions: affinity matrix / lysate: Kinobeads, mixed HEK293/K-562/placenta lysate
IKBKE = IKBKE (UniProt Q14164); conditions: affinity matrix / lysate: Kinobeads, mixed HEK293/K-562/placenta lysate
IRAK4 = IRAK4 (UniProt Q9NWZ3); conditions: affinity matrix / lysate: Kinobeads, mixed HEK293/K-562/placenta lysate
LRRK2 = LRRK2 (UniProt Q5S007); conditions: affinity matrix / lysate: Kinobeads, mixed HEK293/K-562/placenta lysate
Chain of LRRK2 (Q5S007 whole entry): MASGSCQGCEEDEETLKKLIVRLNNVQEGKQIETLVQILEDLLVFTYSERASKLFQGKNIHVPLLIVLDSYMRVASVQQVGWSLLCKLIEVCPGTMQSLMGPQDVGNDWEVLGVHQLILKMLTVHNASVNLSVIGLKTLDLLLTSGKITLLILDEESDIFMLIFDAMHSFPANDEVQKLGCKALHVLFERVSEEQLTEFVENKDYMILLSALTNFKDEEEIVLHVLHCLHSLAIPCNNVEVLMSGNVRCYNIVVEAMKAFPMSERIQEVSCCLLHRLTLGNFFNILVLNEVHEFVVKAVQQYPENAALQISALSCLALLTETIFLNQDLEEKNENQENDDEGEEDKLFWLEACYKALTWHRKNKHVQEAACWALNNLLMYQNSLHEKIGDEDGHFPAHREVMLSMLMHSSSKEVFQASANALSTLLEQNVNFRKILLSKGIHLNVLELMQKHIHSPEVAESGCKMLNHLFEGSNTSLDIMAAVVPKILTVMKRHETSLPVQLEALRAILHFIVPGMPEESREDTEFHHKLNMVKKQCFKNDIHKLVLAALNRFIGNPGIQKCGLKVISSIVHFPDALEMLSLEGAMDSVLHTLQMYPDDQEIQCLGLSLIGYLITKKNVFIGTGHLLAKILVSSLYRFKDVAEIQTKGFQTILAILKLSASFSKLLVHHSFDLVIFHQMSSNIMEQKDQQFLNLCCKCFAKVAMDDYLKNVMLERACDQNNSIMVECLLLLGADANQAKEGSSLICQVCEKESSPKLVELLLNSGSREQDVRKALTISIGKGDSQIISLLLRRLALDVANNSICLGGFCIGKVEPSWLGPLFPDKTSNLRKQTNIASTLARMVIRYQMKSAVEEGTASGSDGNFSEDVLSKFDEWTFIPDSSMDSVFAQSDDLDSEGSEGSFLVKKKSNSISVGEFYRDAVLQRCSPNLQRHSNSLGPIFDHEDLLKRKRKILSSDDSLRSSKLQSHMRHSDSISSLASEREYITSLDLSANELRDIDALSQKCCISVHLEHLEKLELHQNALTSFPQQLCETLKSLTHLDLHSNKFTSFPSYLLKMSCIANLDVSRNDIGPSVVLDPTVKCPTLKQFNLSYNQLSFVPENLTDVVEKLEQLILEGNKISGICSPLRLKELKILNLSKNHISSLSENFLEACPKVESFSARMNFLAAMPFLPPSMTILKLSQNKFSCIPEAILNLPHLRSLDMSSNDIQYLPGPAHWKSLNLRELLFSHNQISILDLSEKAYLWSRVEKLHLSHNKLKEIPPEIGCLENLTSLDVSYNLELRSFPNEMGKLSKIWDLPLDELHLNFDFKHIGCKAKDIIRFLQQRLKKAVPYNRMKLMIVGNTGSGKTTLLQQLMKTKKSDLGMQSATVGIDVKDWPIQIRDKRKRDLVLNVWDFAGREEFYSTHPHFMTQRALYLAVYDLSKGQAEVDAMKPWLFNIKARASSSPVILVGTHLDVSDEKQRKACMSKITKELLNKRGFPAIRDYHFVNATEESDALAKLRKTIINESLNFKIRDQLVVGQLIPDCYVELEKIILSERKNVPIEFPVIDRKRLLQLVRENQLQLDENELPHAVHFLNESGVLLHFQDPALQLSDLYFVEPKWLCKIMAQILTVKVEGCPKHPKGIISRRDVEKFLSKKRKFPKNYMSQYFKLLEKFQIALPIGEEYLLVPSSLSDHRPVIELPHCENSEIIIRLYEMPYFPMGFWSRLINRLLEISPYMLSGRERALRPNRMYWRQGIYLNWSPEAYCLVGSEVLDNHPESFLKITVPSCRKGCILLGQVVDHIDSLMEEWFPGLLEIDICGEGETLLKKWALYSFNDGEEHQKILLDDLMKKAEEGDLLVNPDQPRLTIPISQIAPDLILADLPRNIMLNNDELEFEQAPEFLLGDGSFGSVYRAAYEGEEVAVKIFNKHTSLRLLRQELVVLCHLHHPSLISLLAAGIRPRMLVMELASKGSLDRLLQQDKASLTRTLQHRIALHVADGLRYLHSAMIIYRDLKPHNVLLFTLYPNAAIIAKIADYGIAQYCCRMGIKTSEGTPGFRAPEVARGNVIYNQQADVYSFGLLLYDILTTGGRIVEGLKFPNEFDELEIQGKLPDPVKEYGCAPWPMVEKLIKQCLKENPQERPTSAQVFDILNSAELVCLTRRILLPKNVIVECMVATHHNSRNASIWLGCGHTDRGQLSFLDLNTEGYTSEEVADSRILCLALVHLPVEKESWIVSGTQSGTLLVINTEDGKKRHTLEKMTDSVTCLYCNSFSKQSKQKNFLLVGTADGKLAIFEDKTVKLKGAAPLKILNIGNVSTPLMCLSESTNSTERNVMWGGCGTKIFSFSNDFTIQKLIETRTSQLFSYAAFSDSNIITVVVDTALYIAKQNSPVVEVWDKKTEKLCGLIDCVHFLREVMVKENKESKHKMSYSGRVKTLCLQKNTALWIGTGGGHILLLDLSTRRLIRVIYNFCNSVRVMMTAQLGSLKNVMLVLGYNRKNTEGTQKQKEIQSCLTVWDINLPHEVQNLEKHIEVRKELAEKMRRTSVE

LYN = LYN (UniProt P07948); conditions: affinity matrix / lysate: Kinobeads, mixed HEK293/K-562/placenta lysate
MAP3K5 = MAP3K5 (UniProt Q99683); conditions: affinity matrix / lysate: Kinobeads, mixed HEK293/K-562/placenta lysate
Chain of MAP3K5 (Q99683 whole entry): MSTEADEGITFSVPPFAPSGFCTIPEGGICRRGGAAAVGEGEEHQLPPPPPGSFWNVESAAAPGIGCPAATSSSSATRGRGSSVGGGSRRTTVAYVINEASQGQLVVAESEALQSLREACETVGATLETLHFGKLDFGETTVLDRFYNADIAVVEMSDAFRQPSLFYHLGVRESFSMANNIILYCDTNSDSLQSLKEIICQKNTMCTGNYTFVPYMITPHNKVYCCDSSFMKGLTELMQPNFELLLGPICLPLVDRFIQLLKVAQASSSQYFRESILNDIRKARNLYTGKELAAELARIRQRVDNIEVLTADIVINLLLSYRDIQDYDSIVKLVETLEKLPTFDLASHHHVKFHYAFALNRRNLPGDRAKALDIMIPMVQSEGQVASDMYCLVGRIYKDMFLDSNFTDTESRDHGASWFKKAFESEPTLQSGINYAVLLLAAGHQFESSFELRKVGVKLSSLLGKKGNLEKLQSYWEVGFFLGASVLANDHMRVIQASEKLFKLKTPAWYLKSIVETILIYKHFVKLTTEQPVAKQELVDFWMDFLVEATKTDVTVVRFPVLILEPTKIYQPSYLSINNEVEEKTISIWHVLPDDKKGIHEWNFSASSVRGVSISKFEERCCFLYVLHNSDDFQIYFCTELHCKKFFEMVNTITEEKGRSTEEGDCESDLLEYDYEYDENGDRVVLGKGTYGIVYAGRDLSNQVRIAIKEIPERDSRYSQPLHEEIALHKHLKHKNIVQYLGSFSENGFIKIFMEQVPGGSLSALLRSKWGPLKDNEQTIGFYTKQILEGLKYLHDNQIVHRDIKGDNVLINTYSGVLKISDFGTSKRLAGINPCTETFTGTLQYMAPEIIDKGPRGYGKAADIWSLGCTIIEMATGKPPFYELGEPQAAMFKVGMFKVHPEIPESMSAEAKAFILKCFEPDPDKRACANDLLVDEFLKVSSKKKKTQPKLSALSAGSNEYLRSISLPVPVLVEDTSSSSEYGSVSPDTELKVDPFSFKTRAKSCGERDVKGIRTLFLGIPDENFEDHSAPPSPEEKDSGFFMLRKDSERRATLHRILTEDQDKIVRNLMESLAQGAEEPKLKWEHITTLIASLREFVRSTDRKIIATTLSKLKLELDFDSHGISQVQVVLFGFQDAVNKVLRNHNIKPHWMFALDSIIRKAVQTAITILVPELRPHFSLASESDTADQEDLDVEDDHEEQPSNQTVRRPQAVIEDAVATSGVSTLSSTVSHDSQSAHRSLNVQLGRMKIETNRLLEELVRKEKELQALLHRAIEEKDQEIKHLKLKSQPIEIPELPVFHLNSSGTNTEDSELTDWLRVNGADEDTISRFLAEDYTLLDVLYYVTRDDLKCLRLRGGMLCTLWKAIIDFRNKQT

MAP3K7 = MAP3K7 (UniProt O43318); conditions: affinity matrix / lysate: Kinobeads, mixed HEK293/K-562/placenta lysate
MAPK11 = MAPK11 (UniProt Q15759); conditions: affinity matrix / lysate: Kinobeads, mixed HEK293/K-562/placenta lysate
Chain of MAPK11 (Q15759 whole entry): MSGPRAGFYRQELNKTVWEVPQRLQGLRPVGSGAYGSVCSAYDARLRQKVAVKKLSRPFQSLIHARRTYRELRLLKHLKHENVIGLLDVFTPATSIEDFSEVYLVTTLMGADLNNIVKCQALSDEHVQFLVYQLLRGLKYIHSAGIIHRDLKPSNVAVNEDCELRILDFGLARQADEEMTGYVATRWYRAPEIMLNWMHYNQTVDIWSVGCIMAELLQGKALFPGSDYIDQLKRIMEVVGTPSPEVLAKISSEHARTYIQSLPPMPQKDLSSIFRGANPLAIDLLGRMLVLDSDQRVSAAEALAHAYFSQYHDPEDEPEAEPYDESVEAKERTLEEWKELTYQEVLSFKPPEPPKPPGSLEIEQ

MAPK6 = MAPK6 (UniProt Q16659); conditions: affinity matrix / lysate: Kinobeads, mixed HEK293/K-562/placenta lysate
MAPK9 = MAPK9 (UniProt P45984); conditions: affinity matrix / lysate: Kinobeads, mixed HEK293/K-562/placenta lysate
MARK4 = MARK4 (UniProt Q96L34); conditions: affinity matrix / lysate: Kinobeads, mixed HEK293/K-562/placenta lysate
MERTK = MERTK (UniProt Q12866); conditions: affinity matrix / lysate: Kinobeads, mixed HEK293/K-562/placenta lysate
MST1R = MST1R (UniProt Q04912); conditions: affinity matrix / lysate: Kinobeads, mixed HEK293/K-562/placenta lysate
OXSR1 = OXSR1 (UniProt O95747); conditions: affinity matrix / lysate: Kinobeads, mixed HEK293/K-562/placenta lysate
PI4KB = PI4KB (UniProt Q9UBF8); conditions: affinity matrix / lysate: Lipid Kinobeads, mixed HeLa/Jurkat/K-562 lysate
PIK3CG = PIK3CG (UniProt P48736); conditions: affinity matrix / lysate: Lipid Kinobeads, mixed HeLa/Jurkat/K-562 lysate
PIK3R4 = PIK3R4 (UniProt Q99570); conditions: affinity matrix / lysate: Lipid Kinobeads, mixed HeLa/Jurkat/K-562 lysate
RPS6KA5 = RPS6KA5 (UniProt O75582); conditions: affinity matrix / lysate: Kinobeads, mixed HEK293/K-562/placenta lysate
SGK3 = SGK3 (UniProt Q96BR1); conditions: affinity matrix / lysate: Kinobeads, mixed HEK293/K-562/placenta lysate
STK33 = STK33 (UniProt Q9BYT3); conditions: affinity matrix / lysate: Kinobeads, mixed HEK293/K-562/placenta lysate
SYK = SYK (UniProt P43405); conditions: affinity matrix / lysate: Kinobeads, mixed HEK293/K-562/placenta lysate
TESK1 = TESK1 (UniProt Q15569); conditions: affinity matrix / lysate: Kinobeads, mixed HEK293/K-562/placenta lysate
WEE1 = WEE1 (UniProt P30291); conditions: affinity matrix / lysate: Kinobeads, mixed HEK293/K-562/placenta lysate
[1] = affinity matrix / lysate: Kinobeads, mixed HEK293/K-562/placenta lysate
[2] = affinity matrix / lysate: Lipid Kinobeads, mixed HeLa/Jurkat/K-562 lysate

apparent dissociation constant (-log10 M) (ABL2)	apparent dissociation constant (-log10 M) (BMPR1A)	apparent dissociation constant (-log10 M) (BRSK2)	apparent dissociation constant (-log10 M) (CAMK2B)	apparent dissociation constant (-log10 M) (CAMK2D)	apparent dissociation constant (-log10 M) (CDK10)	apparent dissociation constant (-log10 M) (CSNK2A1; [1])	apparent dissociation constant (-log10 M) (CSNK2A1; [2])	apparent dissociation constant (-log10 M) (EPHB2)	apparent dissociation constant (-log10 M) (ERN1)	apparent dissociation constant (-log10 M) (HIPK2)	apparent dissociation constant (-log10 M) (HIPK3)	apparent dissociation constant (-log10 M) (IKBKE)	apparent dissociation constant (-log10 M) (IRAK4)	apparent dissociation constant (-log10 M) (LRRK2)	apparent dissociation constant (-log10 M) (LYN)	apparent dissociation constant (-log10 M) (MAP3K5)	apparent dissociation constant (-log10 M) (MAP3K7)	apparent dissociation constant (-log10 M) (MAPK11)	apparent dissociation constant (-log10 M) (MAPK6)	apparent dissociation constant (-log10 M) (MAPK9)	apparent dissociation constant (-log10 M) (MARK4)	apparent dissociation constant (-log10 M) (MERTK)	apparent dissociation constant (-log10 M) (MST1R)	apparent dissociation constant (-log10 M) (OXSR1)	apparent dissociation constant (-log10 M) (PI4KB)	apparent dissociation constant (-log10 M) (PIK3CG)	apparent dissociation constant (-log10 M) (PIK3R4)	apparent dissociation constant (-log10 M) (RPS6KA5)	apparent dissociation constant (-log10 M) (SGK3)	apparent dissociation constant (-log10 M) (STK33)	apparent dissociation constant (-log10 M) (SYK)	apparent dissociation constant (-log10 M) (TESK1)	apparent dissociation constant (-log10 M) (WEE1)	Structure (SMILES)
< 6	< 6	< 6	< 6	< 6	< 6	< 6	< 6	< 6	< 6	< 6	< 6	< 6	< 6	< 6	< 6	< 6	< 6	< 6	< 6	< 6	< 6	< 6	< 6	< 6	< 6	< 6	< 6	< 6	< 6	< 6	< 6	< 6	< 6	CCNC(=O)Nc1ccc(-c2nc(N3CCOC[C@@H]3C)c3c(n2)C(C)(C)S(=O)(=O)C3)cc1 [CZ415]
< 6	< 6	< 6	< 6	< 6	< 6	< 6	< 6	< 6	< 6	< 6	< 6	< 6	< 6	< 6	< 6	< 6	< 6	< 6	< 6	< 6	< 6	< 6	< 6	< 6	< 6	< 6	< 6	< 6	< 6	< 6	< 6	< 6	< 6	COc1ccc(-c2ccc3c(N4CCOC[C@@H]4C)nc(N4CCOC[C@@H]4C)nc3n2)cc1CO [AZD8055]
